12 compounds from ChEMBL document CHEMBL5579854, “Targeting Relevant HDACs to Support the Survival of Cone Photoreceptors in Inherited Retinal Diseases: Identification of a Potent Pharmacological Tool with In Vitro and In Vivo Efficacy” (J Med Chem, 2024) can be followed below.

One data set has as its target T1, Histone deacetylase 8 (Homo sapiens, UniProt Q9BY41).
T1 sequence (Q9BY41 whole entry): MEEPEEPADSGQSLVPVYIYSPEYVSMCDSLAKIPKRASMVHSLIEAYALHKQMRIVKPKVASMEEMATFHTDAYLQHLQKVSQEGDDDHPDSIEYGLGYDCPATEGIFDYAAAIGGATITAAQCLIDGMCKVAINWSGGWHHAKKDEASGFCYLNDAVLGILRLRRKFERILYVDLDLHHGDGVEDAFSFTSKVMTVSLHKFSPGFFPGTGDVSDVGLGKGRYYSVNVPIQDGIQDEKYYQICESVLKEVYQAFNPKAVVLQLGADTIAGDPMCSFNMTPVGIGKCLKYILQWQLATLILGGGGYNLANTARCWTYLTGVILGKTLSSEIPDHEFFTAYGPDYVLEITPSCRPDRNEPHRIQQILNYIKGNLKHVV
The data set can be described thus: Inhibition of C-terminal His-tagged full-length recombinant human HDAC8 (1 to 377 residues) expressed in Sf9 insect cells using a fluorogenic substrate preincubated for 30 mins followed by substrate addition measured after 30 mins by fluorescence based assay.

Data set [1] deals with T2, Histone deacetylase 8 (Homo sapiens) (UniProt Q9BY41).
T2 sequence (whole entry): T1 sequence (Q9BY41 whole entry)
Put plainly: Inhibition of C-terminal His-tagged full-length recombinant human HDAC8 (1 to 377 residues) expressed in Sf9 insect cells using a fluorogenic substrate preincubated for 30 mins followed by substrate addition measured after 30 mins by fluorescence based assay relative to control. To be noted: time 60.0 min.

Data set [2] in a line: Lipophilicity, logP of compound. The format is physicochemical. To be noted: octanol/water.
A short description of data set [3]: Solubility of compound. The class given is physicochemical.
Data set [4] is described as follows: Stability of compound at pH 7.4 measured after 24 hrs. The format is physicochemical. To be noted: buffer, read-out: Stability.
Data set [5] addresses T3, Histone deacetylase 1 (Homo sapiens, UniProt Q13547). Put plainly: Inhibition of C-terminal 6xHis-tagged full-length recombinant human HDAC1 (1 to 482 residues) expressed in Sf9 insect cells using a fluorogenic substrate preincubated for 30 mins followed by substrate addition measured after 30 mins by fluorescence based assay.
For data set [6], the target named is T3, Histone deacetylase 1. The data set can be described thus: Inhibition of C-terminal 6xHis-tagged full-length recombinant human HDAC1 (1 to 482 residues) expressed in Sf9 insect cells using a fluorogenic substrate preincubated for 30 mins followed by substrate addition measured after 30 mins by fluorescence based assay relative to control. To be noted: time 60.0 min.

The target in data set [7] is T4, Protein deacetylase HDAC6 (Homo sapiens, UniProt Q9UBN7).
T4 sequence (Q9UBN7 whole entry): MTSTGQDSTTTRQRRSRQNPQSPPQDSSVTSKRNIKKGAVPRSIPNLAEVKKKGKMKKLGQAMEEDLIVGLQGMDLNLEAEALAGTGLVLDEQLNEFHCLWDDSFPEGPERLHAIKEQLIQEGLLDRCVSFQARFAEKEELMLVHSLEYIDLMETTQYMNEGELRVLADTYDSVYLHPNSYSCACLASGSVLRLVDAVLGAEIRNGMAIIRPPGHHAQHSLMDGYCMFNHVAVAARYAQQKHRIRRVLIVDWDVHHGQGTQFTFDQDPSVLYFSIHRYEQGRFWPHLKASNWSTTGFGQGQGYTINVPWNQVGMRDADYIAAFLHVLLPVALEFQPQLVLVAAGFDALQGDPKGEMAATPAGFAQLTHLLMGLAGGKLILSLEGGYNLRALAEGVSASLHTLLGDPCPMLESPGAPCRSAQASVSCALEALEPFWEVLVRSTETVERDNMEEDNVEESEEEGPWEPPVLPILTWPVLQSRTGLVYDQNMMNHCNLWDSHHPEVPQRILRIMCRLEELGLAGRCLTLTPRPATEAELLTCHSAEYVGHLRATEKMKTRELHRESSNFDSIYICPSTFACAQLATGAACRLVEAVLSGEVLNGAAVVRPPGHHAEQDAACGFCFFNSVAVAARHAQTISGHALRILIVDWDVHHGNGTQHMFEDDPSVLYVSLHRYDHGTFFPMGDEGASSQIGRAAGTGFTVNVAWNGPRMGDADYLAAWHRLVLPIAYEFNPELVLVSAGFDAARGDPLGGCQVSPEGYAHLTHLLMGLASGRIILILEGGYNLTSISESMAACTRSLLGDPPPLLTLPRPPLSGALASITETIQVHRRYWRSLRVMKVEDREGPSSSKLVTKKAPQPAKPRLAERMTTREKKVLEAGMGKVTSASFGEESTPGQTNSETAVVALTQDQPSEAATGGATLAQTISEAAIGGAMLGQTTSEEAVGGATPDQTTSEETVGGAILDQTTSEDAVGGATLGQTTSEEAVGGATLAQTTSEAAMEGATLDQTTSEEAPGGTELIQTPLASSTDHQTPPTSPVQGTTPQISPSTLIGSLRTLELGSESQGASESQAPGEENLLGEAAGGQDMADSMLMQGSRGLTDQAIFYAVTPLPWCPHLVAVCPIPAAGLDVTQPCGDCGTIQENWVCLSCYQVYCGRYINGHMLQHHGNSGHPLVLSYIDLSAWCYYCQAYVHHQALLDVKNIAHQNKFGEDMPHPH
The data set can be described thus: Inhibition of C-terminal FLAG-tagged full-length recombinant human HDAC6 (1 to 1215 residues) expressed in Sf9 insect cells using a fluorogenic substrate preincubated for 30 mins followed by substrate addition measured after 30 mins by fluorescence based assay.

Data set [8] addresses T5, Histone deacetylase 5 (Homo sapiens, UniProt Q9UQL6). Put plainly: Inhibition of C-terminal His-tagged recombinant human HDAC5 catalytic domain (656 to 1122 residues) expressed in baculovirus infected Sf9 insect cells using a fluorogenic substrate preincubated for 30 mins followed by substrate addition measured after 30 mins by fluorescence based assay.
The target of data set [9] is T5, Histone deacetylase 5. Put plainly: Inhibition of C-terminal His-tagged recombinant human HDAC5 catalytic domain (656 to 1122 residues) expressed in baculovirus infected Sf9 insect cells using a fluorogenic substrate preincubated for 30 mins followed by substrate addition measured after 30 mins by fluorescence based assay relative to control. The settings on record: time 60.0 min.

The subject of data set [10] is 661W. The data set can be described thus: Cytoprotective effect against H2O2-induced oxidative stress in mouse 661W cells assessed as increase in acetylated alpha-tubulin level at 10 uM incubated for 24 hrs followed by H2O2 treatment for 3 hrs by immunofluorescence analysis. The format is functional, cell-based. The settings on record: time 27.0 hrs.
The test system of data set [11] is 661W. The data set can be described thus: Effect on acetylated histone H3 level in H2O2-induced oxidative stress in mouse 661W cells at 10 uM incubated for 24 hrs followed by H2O2 treatment for 3 hrs by Western blot analysis. To be noted: time 27.0 hrs. The class given is functional, cell-based. On the technique in general: Immunoblotting shows a protein as a band on a membrane.

In data set [12] the test system is 661W. The data set can be described thus: Effect on acetylated alpha-tubulin level in H2O2-induced oxidative stress in mouse 661W cells at 10 uM incubated for 24 hrs followed by H2O2 treatment for 3 hrs by Western blot analysis. The format is functional, cell-based. To be noted: time 27.0 hrs.

The structures appear in SMILES notation. ≈ marks a conversion by molar mass, not a printed value. Calls of active or inactive are those of the source. The rule behind the calls is not given here.

T3 sequence (Q13547 whole entry, the tested form may be a part): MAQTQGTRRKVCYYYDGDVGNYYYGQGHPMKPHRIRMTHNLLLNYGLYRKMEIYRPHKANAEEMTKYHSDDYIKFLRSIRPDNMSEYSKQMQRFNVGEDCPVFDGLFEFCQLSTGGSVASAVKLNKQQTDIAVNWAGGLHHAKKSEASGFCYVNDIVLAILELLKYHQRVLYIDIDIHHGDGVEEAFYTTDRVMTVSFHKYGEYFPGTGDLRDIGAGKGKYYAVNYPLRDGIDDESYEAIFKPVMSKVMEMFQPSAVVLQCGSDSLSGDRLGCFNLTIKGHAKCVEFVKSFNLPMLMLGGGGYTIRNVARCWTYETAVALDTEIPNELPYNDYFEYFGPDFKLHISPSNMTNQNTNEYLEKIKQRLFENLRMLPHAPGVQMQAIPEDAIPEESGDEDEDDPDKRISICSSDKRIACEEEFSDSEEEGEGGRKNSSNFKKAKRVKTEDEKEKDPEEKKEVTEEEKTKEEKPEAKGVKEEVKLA
T5 sequence (Q9UQL6 whole entry, the tested form may be a part): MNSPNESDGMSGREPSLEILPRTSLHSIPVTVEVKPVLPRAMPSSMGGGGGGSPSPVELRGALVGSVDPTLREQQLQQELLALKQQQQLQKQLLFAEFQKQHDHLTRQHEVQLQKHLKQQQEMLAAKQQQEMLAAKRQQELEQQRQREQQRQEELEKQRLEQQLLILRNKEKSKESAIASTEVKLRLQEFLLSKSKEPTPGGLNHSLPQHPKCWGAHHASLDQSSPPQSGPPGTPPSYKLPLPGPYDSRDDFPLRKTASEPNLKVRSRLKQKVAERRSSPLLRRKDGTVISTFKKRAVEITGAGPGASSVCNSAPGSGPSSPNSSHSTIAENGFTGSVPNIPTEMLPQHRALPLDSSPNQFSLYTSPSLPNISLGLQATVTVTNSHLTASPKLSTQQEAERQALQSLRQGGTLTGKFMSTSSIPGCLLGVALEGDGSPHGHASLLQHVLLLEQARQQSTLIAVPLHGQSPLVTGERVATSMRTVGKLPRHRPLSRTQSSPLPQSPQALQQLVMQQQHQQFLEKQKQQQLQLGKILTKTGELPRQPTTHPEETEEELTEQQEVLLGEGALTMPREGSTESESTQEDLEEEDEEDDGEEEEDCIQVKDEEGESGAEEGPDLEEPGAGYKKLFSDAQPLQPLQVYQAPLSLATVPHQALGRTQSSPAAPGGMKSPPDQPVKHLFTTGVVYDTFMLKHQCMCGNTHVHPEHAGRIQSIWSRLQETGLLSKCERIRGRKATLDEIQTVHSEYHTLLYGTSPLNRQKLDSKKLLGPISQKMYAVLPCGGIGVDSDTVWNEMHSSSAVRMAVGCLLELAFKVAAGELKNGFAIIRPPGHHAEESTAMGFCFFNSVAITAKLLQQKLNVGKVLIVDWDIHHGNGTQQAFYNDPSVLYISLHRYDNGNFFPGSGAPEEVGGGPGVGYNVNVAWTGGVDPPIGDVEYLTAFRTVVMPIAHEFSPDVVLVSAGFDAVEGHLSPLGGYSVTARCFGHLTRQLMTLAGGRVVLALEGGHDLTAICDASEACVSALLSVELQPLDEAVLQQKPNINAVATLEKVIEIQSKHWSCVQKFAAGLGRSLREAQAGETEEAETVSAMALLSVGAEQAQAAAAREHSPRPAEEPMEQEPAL

The IC50 is the concentration that inhibits the measured activity by half. As a reminder, the inhibition is how much of the control response was suppressed. What is called logP is the decadic logarithm of the partition coefficient of the neutral form, usually between octanol and water. The low end stands for a more hydrophilic compound, the high end for a more lipophilic compound. A word on the solubility: it is how much of the substance goes into solution per volume. Lower therefore signals little dissolved substance. For `Cn1c2c(c3ccccc31)CN(C(=O)OCc1ccc(C(=O)NO)cc1)CC2`, at Histone deacetylase 8, the IC50 was more than 10 µM. Also, the inhibition in data set [1] was found to be 38%. Moreover, the logP in data set [2] turned out to be 3.2. In [3], this compound returned a solubility of 227 µM (≈ 86.1 µg/mL). Also, the remaining at 24 h in data set [4] was 90%.

On to `O=C(NO)c1ccc(NC(=O)N2CCc3c(c4ccccc4n3Cc3ccccc3)C2)cc1`, for which the logP in [2] was found to be 3.99. Besides, in data set [3], the solubility was found to be 141 µM (≈ 62.1 µg/mL). The remaining at 24 h in [4] stood at 90%.

The compound `CN1CC2(CCN(Cc3ccc(C(=O)NO)cc3)CC2)c2ccccc21` displayed a logP in data set [2] of 2.1. The compound further yielded a solubility in data set [3] of 97 µM (≈ 34.1 µg/mL). The remaining at 24 h in [4] was determined as 71%.

For `CC(/C=C/C(=O)NO)=C\[C@@H](C)C(=O)c1ccc(N(C)C)cc1` [TRICHOSTATIN], the logP in [2] is 2.57.

Regarding `CC(C)(C)OC(=O)N1CCC2(CC1)CN(Cc1ccc(C(=O)NO)cc1)c1ccccc12`, in data set [2], the logP amounted to 2.5. In data set [3], this compound returned a solubility of 223 µM (≈ 97.6 µg/mL). The remaining at 24 h in data set [4] stood at 74%.

On to `O=C(NO)c1ccc(COC(=O)N2CCC3(CC2)CN(Cc2ccccc2)c2ccccc23)cc1`, for which the logP in data set [2] was found to be 4.2. The compound further returned a solubility in data set [3] of 156 µM (≈ 73.6 µg/mL). In addition, in data set [4], the remaining at 24 h came to 64%.

In turn, `CCN(CC)Cc1ccc(Cn2c3c(c4ccccc42)CN(C(=O)NCc2ccc(C(=O)NO)cc2)CC3)cc1` yielded a logP in [2] of 4.08. The compound also yielded a solubility in [3] of 295 µM (≈ 159 µg/mL). For the same compound, in data set [4], the remaining at 24 h amounted to 92%.

Turning to `Cn1c2c(c3ccccc31)CN(Cc1ccc(C(=O)NO)cc1)CC2`, the IC50 on Histone deacetylase 1 [5] was more than 10 µM. Further, the inhibition on Histone deacetylase 1 [6] was 43%. Also, in [2], the logP was determined as 1.97. Also, the solubility in data set [3] amounted to 200 µM (≈ 67.1 µg/mL). In [4], the remaining at 24 h came to 94%.

With `CC1(C)c2ccccc2N(Cc2ccc(C(=O)NO)cc2)C1c1cccnc1` (stereo not drawn), the IC50 was 0.0408 µM in data set [7], 5.42 µM on Histone deacetylase 1 [5], 2.2 µM at Histone deacetylase 8 and more than 10 µM at Histone deacetylase 5 [8]. Also, the inhibition on Histone deacetylase 5 [9] is 14%. For the same compound, the logP in [2] was 2.04. The compound further registered a solubility in data set [3] of 285 µM (≈ 106 µg/mL). Moreover, the remaining at 24 h in [4] was determined as 97%.

As to `CN1CCc2c(c3ccccc3n2Cc2ccc(C(=O)NO)cc2)C1` [TUBASTATIN A], the result in the data set on 661W [10] was Active. This compound came in with a logP in data set [2] of 2.02. The amount in solution in [3] (solubility) came to 231 µM (≈ 77.5 µg/mL). Moreover, in data set [4], the remaining at 24 h came out at 75%. Further, the outcome in the data set with 661W [11] and in the data set with 661W [12] was inactive.

Consider `Cn1c2c(c3ccccc31)CN(C(=O)NCc1ccc(C(=O)NO)cc1)CC2`, for which, on Histone deacetylase 1 [5], the IC50 was more than 10 µM. The inhibition on Histone deacetylase 1 [6] is 41%.

On to `O=C(NO)c1ccc(CNC(=S)N2CCc3c(c4ccccc4n3Cc3ccccc3)C2)cc1`, for which, in data set [7], the IC50 was more than 10 µM.
